Data reported in US9169252B2 (BRISTOL-MYERS SQUIBB COMPANY, priority 2014, dated 2015).

Experiments:
IRAK4 = IRAK4 (Homo sapiens (Human), UniProt Q9NWZ3); assay: IRAK4 Inhibition Assay; type: biochemical; conditions: IRAK4 Inhibition Assay; ATP 500 μM; read-out: IRAK4 IC50
In short: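 Mobility-shift readout: fluorescent substrate and phosphoproduct resolved electrophoretically on Caliper LabChip 3000 after EDTA quench (35 mM). Enzyme reaction of IRAK4, substrates and test compound ran 60 min at room temperature.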

[1] = system: TLR2 induced IL-6 in peripheral blood mononuclear cells (PBMCs); assay: PBMC TLR2 Induced IL-6 Assay; type: cell-based, human; conditions: Homo sapiens, PBMC, PBMC TLR2 Induced IL-6 Assay; lipoteichoic acid stimulation, IL-6 by ELISA; read-out: Cell IC50
In short: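 Lipoteichoic acid at 10 µg/ml served as TLR2 stimulus for 5 hours, following a 30-minute compound pretreatment at 37° C. Cells were Ficoll-isolated human PBMCs, 250000 cells/well, cultured in RPMI plus 10% heat-inactivated FCS.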

IRAK4, sequence (Q9NWZ3 whole entry, species assumed): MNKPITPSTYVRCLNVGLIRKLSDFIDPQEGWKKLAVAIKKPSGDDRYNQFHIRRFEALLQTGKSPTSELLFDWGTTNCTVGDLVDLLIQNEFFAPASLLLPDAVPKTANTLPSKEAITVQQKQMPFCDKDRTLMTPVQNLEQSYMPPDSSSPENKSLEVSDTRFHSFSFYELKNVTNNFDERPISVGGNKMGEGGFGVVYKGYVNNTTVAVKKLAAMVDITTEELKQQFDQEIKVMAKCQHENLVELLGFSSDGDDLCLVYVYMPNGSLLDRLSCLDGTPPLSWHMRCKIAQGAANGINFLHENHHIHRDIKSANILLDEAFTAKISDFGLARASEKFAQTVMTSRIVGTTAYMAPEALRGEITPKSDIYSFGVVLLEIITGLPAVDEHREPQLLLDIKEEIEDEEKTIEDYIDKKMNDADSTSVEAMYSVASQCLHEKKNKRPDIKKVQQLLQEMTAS

| Compound | IC50 (IRAK4) [nM] | IC50 [1] [nM] |
| --- | --- | --- |
| CC(C)CC(=O)NCc1cnc2c(cnn2-c2cc(NC(C)C)c(C(=O)NC[C@@H](F)C(C)(C)O)cn2)c1 [Example 280] | 16.9 | 692 |
| CC(C)(C)Nc1cc(-n2ncc3cc(C#N)cnc32)ncc1C(=O)NC[C@@H](F)C(C)(C)O [Example 286] | 1.7 | 158 |
| CC1(Nc2cc(-n3ncc4cc(C#N)cnc43)ncc2C(=O)NC[C@@H](F)C(C)(C)O)CC1 [Example 292] | 2.7 | 456 |
| CC(C)(C)Nc1cc(-n2ncc3cc(C#N)c(N)nc32)ncc1C(=O)NC[C@@H](F)C(C)(C)O [Example 293] | 1 | 32 |
| CC(C)Nc1cc(-n2ncc3cc(C#N)c(N)nc32)ncc1C(=O)NC[C@@H](F)C(C)(C)F [Example 295] | 1.9 | 240 |
| CC[C@@H](C)Nc1cc(-n2ncc3cc(C#N)c(N)nc32)ncc1C(=O)NC[C@@H](F)C(C)(C)O [Example 300] | 1.6 | 83 |
| CC(Nc1cc(-n2ncc3cc(C#N)c(N)nc32)ncc1C(=O)NC[C@@H](F)C(C)(C)O)C(F)(F)F (some centres unmarked) [Example 301] | 2.4 | 63 |
| CC(C)CCNC(=O)c1cnc(-n2ncc3cc(C#N)c(N)nc32)cc1NC(C)C [Example 303] | 3.5 | 176 |
| CNC(=O)c1cnc(-n2ncc3cc(C#N)c(N)nc32)cc1NC(C)C [Example 305] | 9.2 | 207 |
| CC(C)Nc1cc(-n2ncc3cc(C#N)c(N)nc32)ncc1C(=O)NCCC(C)(C)F [Example 307] | 2 | 127 |

Further lines, with some results ahead:

| IC50 (IRAK4) [nM] | Compound | IC50 [1] [nM] |
| --- | --- | --- |
| 7.8 | CC(C)Nc1cc(-n2ncc3cc(C#N)cnc32)ncc1C(=O)Nc1cnn(C2CN(S(C)(=O)=O)C2)c1 [Example 281] | 255 |
| 2.8 | CC[C@@H](C)Nc1cc(-n2ncc3cc(C#N)cnc32)ncc1C(=O)NC[C@@H](F)C(C)(C)O [Example 283] | 135 |
| 10 | CC(C)Nc1cc(-n2ncc3cc(C#N)cnc32)ncc1C(=O)Nc1cnn(CC(F)F)c1 [Example 285] | 200 |
| 4.7 | CC[C@H](C)Nc1cc(-n2ncc3cc(C#N)cnc32)ncc1C(=O)NC[C@@H](F)C(C)(C)O [Example 289] | 275 |
| 5.9 | CCS(=O)(=O)N1CCC(NC(=O)c2cnc(-n3ncc4cc(C#N)cnc43)cc2NC(C)C)CC1 [Example 290] | 364 |
| 3.5 | COC1CCC(O)(CCNC(=O)c2cnc(-n3ncc4cc(C#N)cnc43)cc2NC(C)C)CC1 (centres unmarked) [Example 291] | 349 |
| 13.4 | CC(C)Nc1cc(-n2ncc3cc(C#N)cnc32)ncc1C(=O)NCC(F)=C1CCOCC1 [Example 294] | 292 |
| 7.1 | CC(C)Nc1cc(-n2ncc3cc(C#N)cnc32)ncc1C(=O)N[C@@H]1CC[C@@H](C(C)(C)O)OC1 [Example 296] | 412 |
| 4.5 | CC(C)CCNC(=O)c1cnc(-n2ncc3cc(C#N)cnc32)cc1NC(C)C [Example 298] | 142 |
| 6.3 | CC(C)Nc1cc(-n2ncc3cc(C#N)c(N)nc32)ncc1C(=O)NCCC1CC1 [Example 299] | 252 |
| 4.1 | CC(C)Nc1cc(-n2ncc3cc(C#N)cnc32)ncc1C(=O)NCCC1CC1 [Example 302] | 148 |
| 10.7 | CC(C)Nc1cc(-n2ncc3cc(C#N)cnc32)ncc1C(=O)Nc1cnn(CC(C)(C)O)c1 [Example 304] | 408 |
| 4.8 | CC(C)Nc1cc(-n2ncc3cc(C#N)cnc32)ncc1C(=O)NCCC(C)(C)NS(C)(=O)=O [Example 306] | 800 |
| 3 | CC(C)Nc1cc(-n2ncc3cc(C#N)cnc32)ncc1C(=O)NC[C@@H](F)C(C)(C)F [Example 308] | 73 |
| 18.4 | CC(C)Nc1cc(-n2ncc3cc(C#N)cnc32)ncc1C(=O)NC1CCN(S(=O)(=O)NC(C)C)CC1 [Example 309] | 207 |
